Molecules are shown by their SMILES.

The target of this test is T1, CGRP receptor (SK-N-MC cell membranes) (Homo sapiens, UniProt O60894+Q16602).
T1 construct: endogenous in cells; host or cells: SK-N-MC cells (membrane homogenate)
T1 sequence (Q16602 23-461): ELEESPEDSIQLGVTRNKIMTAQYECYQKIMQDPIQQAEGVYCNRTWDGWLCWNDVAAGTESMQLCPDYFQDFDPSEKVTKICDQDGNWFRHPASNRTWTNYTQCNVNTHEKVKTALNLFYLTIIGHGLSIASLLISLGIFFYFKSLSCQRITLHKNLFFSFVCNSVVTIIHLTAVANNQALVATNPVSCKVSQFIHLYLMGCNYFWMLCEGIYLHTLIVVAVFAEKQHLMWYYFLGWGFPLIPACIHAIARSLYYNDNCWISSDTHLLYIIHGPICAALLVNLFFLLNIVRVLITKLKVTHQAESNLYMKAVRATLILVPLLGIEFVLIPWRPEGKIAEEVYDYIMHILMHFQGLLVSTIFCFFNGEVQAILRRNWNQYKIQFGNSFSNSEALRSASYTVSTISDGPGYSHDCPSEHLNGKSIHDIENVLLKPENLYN
T1 sequence (O60894 27-148): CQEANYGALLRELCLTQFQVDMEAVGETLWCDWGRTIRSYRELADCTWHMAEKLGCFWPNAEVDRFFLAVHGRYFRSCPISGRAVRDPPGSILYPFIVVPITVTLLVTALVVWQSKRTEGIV
The experiment in a line: CGRP Binding Assay ([125I]-CGRP radioligand binding, SK-N-MC homogenate). The note with it: displacement of [125I]-CGRP, SK-N-MC homogenate; read-out: CGRP binding IC50. As for the experimental part: Tissue Culture. SK-N-MC cells were grown at 37° C. in 5% CO2 as a monolayer in medium consisting of MEM with Earle's salts and L-glutamine (Gibco) supplemented with 10% fetal bovine serum (Gibco).
Cell Pellets. […] The cells were transferred from plates to polypropylene tubes (16×100 mm) and homogenized using a polytron. Homogenates were centrifuged at 32,000×g for 30 min. The pellets were resuspended in cold hypotonic lysis buffer with 0.1% mammalian protease inhibitor cocktail (Sigma) and assayed for protein concentration. The SK-N-MC homogenate was then aliquoted and stored at −80° C. until needed.
Radioligand Binding Assay. The compounds of invention were solubilized and carried through serial dilutions using 100% DMSO. Aliquots from the compound serial dilutions were further diluted 25 fold into assay buffer (50 mM Tris-Cl pH 7.5, 5 mM MgCl2, 0.005% Triton X-100) and transferred (volume 50 μl) into 96 well assay plates. […] SK-N-MC pellets were thawed, diluted in assay buffer with fresh 0.1% mammalian protease inhibitor cocktail (Sigma), and homogenized again. SK-N-MC homogenate (5 μg/well) was added in a volume of 100 μl. The assay plates were then incubated at room temperature for 2 h. Assays were stopped by addition of excess cold wash buffer (20 mM Tris-Cl pH 7.5, 0.1% BSA) immediately followed by filtration over glass fiber filters (Whatman GF/B) previously soaked in 0.5% PEI. Non-specific binding was defined with 1 μM beta-CGRP. Protein bound radioactivity was determined using a gamma or scintillation counter.
For orientation: In a radioligand displacement assay an active substance lowers the binding of a labelled ligand.
By IC50 is commonly meant the concentration needed to halve the response being measured. On to `CCCCC(CC)CN1CCN(C(=O)C(Cc2ccc3[nH]ncc3c2)NC(=O)N2CCC(N3Cc4ccccc4NC3=O)CC2)CC1` (stereo not shown) [Example 40f], for which the IC50 is above 1000 nM. To `O=C(NC(Cc1ccc2[nH]ncc2c1)C(=O)N1CCN(Cc2ccc[nH]2)CC1)N1CCC(N2Cc3ccccc3NC2=O)CC1` (stereo not shown) [Example 40g] belongs above 1000 nM; to `CN(C)/C=C/CN1CCN(C(=O)C(Cc2ccc3[nH]ncc3c2)NC(=O)N2CCC(N3Cc4ccccc4NC3=O)CC2)CC1` (stereo not shown) [Example 40h], above 1000 nM.

Regarding `CCC(CN1CCN(C(=O)C(Cc2ccc3[nH]ncc3c2)NC(=O)N2CCC(N3Cc4ccccc4NC3=O)CC2)CC1)C(C)C` (stereo not shown) [Example 40i], the concentration for half-maximal inhibition (IC50) lay within 10 to 100 nM.

`O=C(NC(Cc1ccc2[nH]ncc2c1)C(=O)N1CCN(C/C=C/c2ccccc2)CC1)N1CCC(N2Cc3ccccc3NC2=O)CC1` (stereo not shown) [Example 40j]: the 50% inhibitory concentration (IC50) was above 1000 nM.

On to `CN1CCN(C(=O)C(Cc2ccc3[nH]ncc3c2)NC(=O)N2CCC(N3Cc4ccccc4NC3=O)CC2)CC1` (stereo not shown) [Example 40k], for which the IC50 is above 1000 nM. As to `Cc1cc(CC(NC(=O)N2CCC(N3Cc4ccccc4NC3=O)CC2)C(=O)OC2CCCCC2)cc2cn[nH]c12` (stereo not shown) [Example 41a, 3-(7-Methyl-1H-indazol-5-yl)-2-{[4-(2-oxo-1,4-dihydro-2H-quinazolin-3-yl)-piperidine-1-carbonyl]-amino}-propionic acid cyclohexyl ester], the IC50 was 10 to 100 nM.

Take `Cc1cc(CC(NC(=O)N2CCC(N3Cc4ccccc4NC3=O)CC2)C(=O)OC2CCN(Cc3ccccc3)CC2)cc2cn[nH]c12` (stereo not shown) [Example 41b, 3-(7-Methyl-1H-indazol-5-yl)-2-{[4-(2-oxo-1,4-dihydro-2H-quinazolin-3-yl)-piperidine-1-carbonyl]-amino}-propionic acid 1-benzyl-piperidin-4-yl ester]: the concentration for half-maximal inhibition (IC50) was below 10 nM. As for `Cc1cc(CC(NC(=O)N2CCC(N3Cc4ccccc4NC3=O)CC2)C(=O)OC2CCN(C)CC2)cc2cn[nH]c12` (stereo not shown) [Example 41c, 3-(7-Methyl-1H-indazol-5-yl)-2-{[4-(2-oxo-1,4-dihydro-2H-quinazolin-3-yl)-piperidine-1-carbonyl]-amino}-propionic acid 1-methyl-piperidin-4-yl ester], the figure is below 10 nM. To `Cc1cc(CC(NC(=O)N2CCC(N3Cc4ccccc4NC3=O)CC2)C(=O)OC2CCC(c3ccccc3)CC2)cc2cn[nH]c12` (stereo not shown) [Example 41d, 3-(7-Methyl-1H-indazol-5-yl)-2-{[4-(2-oxo-1,4-dihydro-2H-quinazolin-3-yl)-piperidine-1-carbonyl]-amino}-propionic acid 4-phenyl-cyclohexyl ester] belongs 10 to 100 nM. With `Cc1cc(CC(NC(=O)N2CCC(N3Cc4ccccc4NC3=O)CC2)C(=O)O[C@H](C)c2ccncc2)cc2cn[nH]c12` (stereo partly drawn) [Example 41e, 3-(7-Methyl-1H-indazol-5-yl)-2-{[4-(2-oxo-1,4-dihydro-2H-quinazolin-3-yl)-piperidine-1-carbonyl]-amino}-propionic acid (R)-1-pyridin-4-yl-ethyl ester], the 50% inhibitory concentration (IC50) is below 10 nM. To `Cc1cc(CC(NC(=O)N2CCC(N3Cc4ccccc4NC3=O)CC2)C(=O)O[C@@H](C)c2ccncc2)cc2cn[nH]c12` (stereo partly drawn) [Example 41f, 3-(7-Methyl-1H-indazol-5-yl)-2-{[4-(2-oxo-1,4-dihydro-2H-quinazolin-3-yl)-piperidine-1-carbonyl]-amino}-propionic acid(S)-1-pyridin-4-yl-ethyl ester] belongs 10 to 100 nM. As for `COC(=O)[C@@H](Cc1ccc2[nH]nnc2c1)NC(=O)N1CCC(N2Cc3ccccc3NC2=O)CC1` [Example 48, (R)-3-(1H-Benzotriazol-5-yl)-2-{[4-(2-oxo-1,4-dihydro-2H-quinazolin-3-yl)-piperidine-1-carbonyl]-amino}-propionic acid methyl ester], the figure is above 1000 nM; as for `O=C(N[C@H](Cc1ccc2nn[nH]c2c1)C(=O)N1CCC(N2CCCCC2)CC1)N1CCC(N2Cc3ccccc3NC2=O)CC1` [Example 49, (R)-4-(2-Oxo-1,4-dihydro-2H-quinazolin-3-yl)-piperidine-1-carboxylic acid[1-(1H-benzotriazol-5-ylmethyl)-2-[1,4′]bipiperidinyl-1′-yl-2-oxo-ethyl]-amide], below 10 nM; as for `O=C1Cc2cc(C[C@@H](NC(=O)N3CCC(N4Cc5ccccc5NC4=O)CC3)C(=O)N3CCC(N4CCCCC4)CC3)ccc2N1` [Example 50, (R)-4-(2-Oxo-1,4-dihydro-2H-quinazolin-3-yl)-piperidine-1-carboxylic acid[2-[1,4′]bipiperidinyl-1′-yl-2-oxo-1-(2-oxo-2,3-dihydro-1H-indol-5-ylmethyl)-ethyl]-amide], below 10 nM. As for `CC(C)(C)OC(=O)N[C@@H](CC(=O)N1CCC(N2Cc3ccccc3NC2=O)CC1)C(=O)N1CCC(N2CCCCC2)CC1` [Example 85, (L)-{1-([1,4′]Bipiperidinyl-1′-carbonyl)-3-oxo-3-[4-(2-oxo-1,4-dihydro-2H-quinazolin-3-yl)-piperidin-1-yl]-propyl}-carbamic acid tert-butyl ester], the figure is 100 to 1000 nM. Consider `Cc1nc(N[C@@H](CC(=O)N2CCC(N3Cc4ccccc4NC3=O)CC2)C(=O)N2CCC(N3CCCCC3)CC2)nc(N)c1[N+](=O)[O-]` [Example 90, (L)-2-(4-Amino-6-methyl-5-nitro-pyrimidin-2-ylamino)-1-[1,4′]bipiperidinyl-1′-yl-4-[4-(2-oxo-1,4-dihydro-2H-quinazolin-3-yl)-piperidin-1-yl]-butane-1,4-dione], for which the IC50 fell in the range of 10 to 100 nM. As to `Cc1nc(N[C@@H](CC(=O)N2CCC(N3Cc4ccccc4NC3=O)CC2)C(=O)N2CCC(N3CCCCC3)CC2)nc(N)c1N` [Example 91, (L)-1-[1,4′]Bipiperidinyl-1′-yl-2-(4,5-diamino-6-methyl-pyrimidin-2-ylamino)-4-[4-(2-oxo-1,4-dihydro-2H-quinazolin-3-yl)-piperidin-1-yl]-butane-1,4-dione], the half-maximal inhibitory concentration (IC50) lay in the range of 100 to 1000 nM. To `O=C(C[C@H](NCc1ccccn1)C(=O)N1CCC(N2CCCCC2)CC1)N1CCC(N2Cc3ccccc3NC2=O)CC1` [Example 93, (L)-1-[1,4′]Bipiperidinyl-1′-yl-2-((2′-pyridyl)-methyl-amino)-4-[4-(2-oxo-1,4-dihydro-2H-quinazolin-3-yl)-piperidin-1-yl]-butane-1,4-dione] belongs 100 to 1000 nM; to `Cc1cccc(CN[C@@H](CC(=O)N2CCC(N3Cc4ccccc4NC3=O)CC2)C(=O)N2CCC(N3CCCCC3)CC2)c1` [Example 95, (L)-1-[1,4′]Bipiperidinyl-1′-yl-2-((3′-methyl-phenyll)-methyl-amino)-4-[4-(2-oxo-1,4-dihydro-2H-quinazolin-3-yl)-piperidin-1-yl]-butane-1,4-dione], 100 to 1000 nM; to `O=C(C[C@H](Nc1ccncn1)C(=O)N1CCC(N2CCCCC2)CC1)N1CCC(N2Cc3ccccc3NC2=O)CC1` [Example 96, (L)-1-[1,4′]Bipiperidinyl-1′-yl-4-[4-(2-oxo-1,4-dihydro-2H-quinazolin-3-yl)-piperidin-1-yl]-2-(pyrimidin-4-ylamino)-butane-1,4-dione], above 1000 nM. To `O=C(C[C@H](NC1CCC(O)CC1)C(=O)N1CCC(N2CCCCC2)CC1)N1CCC(N2Cc3ccccc3NC2=O)CC1` (stereo partly shown) [Example 97, (L)-1-[1,4′]Bipiperidinyl-1′-yl-2-(4-hydroxy-cyclohexylamino)-4-[4-(2-oxo-1,4-dihydro-2H-quinazolin-3-yl)-piperidin-1-yl]-butane-1,4-dione] belongs above 1000 nM.

For the origin of these results see US7842808B2, “Anti-migraine spirocycles” (Bristol-Myers Squibb Company, priority 2002, dated 2010).
